The first experiment has as its system KRAS G12V dependent lung adenocarcinoma cell line, NCI-H441. The experiment can be described thus: Cellular pERK (Thr202/Tyr204) FRET/HTRF assay. Type of experiment: cell-based. The following applies: Homo sapiens, NCI-H441, cellular pERK (Thr202/Tyr204) HTRF, NCI-H441 cells. In a few lines: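 Using a mix-and-read HTRF kit, phospho-ERK (Thr202/Tyr204) was detected in NCI-H441 lysates following 1 hr compound incubation at 37 °C, 5% CO2. Cells had been seeded overnight beforehand, and IC50 was derived by curve fitting.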
(In TR-FRET formats the signal depends on donor and acceptor labels being close together.)
As for `[2H]C([2H])(Oc1nc(N2CCOC[C@H]3[C@H](F)[C@H]32)c2cnc(-c3cc(N)cc4cccc(C#C)c34)c(F)c2n1)[C@@]12CCCN1[C@H](C)[C@H](F)C2` [Example 338, 5-ethynyl-4-(8-fluoro-2-(((2R,3R,7aS)-2-fluoro-3-methyltetrahydro-1H-pyrrolizin-7a(5H)-yl)methoxy-d2)-4-((1S,7S,8S)-8-fluoro-5-oxa-2-azabicyclo[5.1.0]octan-2-yl)pyrido[4,3-d]pyrimidin-7-yl)naphthalen-2-amine], the IC50 (usually the concentration needed to halve the response being measured) is less than 50 nM.

In turn, `[2H]C([2H])(Oc1nc(N2CCOC[C@@H]3[C@@H](Cl)[C@@H]32)c2cnc(-c3cc(N)cc4ccc(Cl)c(C#C)c34)c(F)c2n1)[C@@]12CCCN1[C@H](C)[C@H](F)C2` [Example 345, 6-chloro-4-(4-((1R,7R,8R)-8-chloro-5-oxa-2-azabicyclo[5.1.0]octan-2-yl)-8-fluoro-2-(((2R,3R,7aS)-2-fluoro-3-methyltetrahydro-1H-pyrrolizin-7a(5H)-yl)methoxy-d2)pyrido[4,3-d]pyrimidin-7-yl)-5-ethynylnaphthalen-2-amine] returned a concentration for half-maximal inhibition (IC50) of 500 to 10000 nM. Take `[2H]C([2H])(Oc1nc(N2CCOC[C@@H]3[C@@H](Cl)[C@@H]32)c2cnc(-c3cc(N)cc4cccc(C#C)c34)c(F)c2n1)[C@@]12CCCN1[C@H](C)[C@H](F)C2` [Example 346, 4-(4-((1R,7R,8R)-8-chloro-5-oxa-2-azabicyclo[5.1.0]octan-2-yl)-8-fluoro-2-(((2R,3R,7aS)-2-fluoro-3-methyltetrahydro-1H-pyrrolizin-7a(5H)-yl)methoxy-d2)pyrido[4,3-d]pyrimidin-7-yl)-5-ethynylnaphthalen-2-amine]: the IC50 fell in the range of 500 to 10000 nM. Still for that read-out and setting: then `C#Cc1c(F)ccc2cc(N)cc(-c3ncc4c(N5CCOC[C@@H]6[C@@H](Cl)[C@@H]65)nc(OC[C@]56CC(=C)CN5CCC65CC5)nc4c3C)c12` [Example 347, 4-(4-((1R,7R,8R)-8-chloro-5-oxa-2-azabicyclo[5.1.0]octan-2-yl)-8-methyl-2-(((R)-6′-methylenetetrahydrospiro[cyclopropane-1,1′-pyrrolizin]-7a′(5′H)-yl)methoxy)pyrido[4,3-d]pyrimidin-7-yl)-5-ethynyl-6-fluoronaphthalen-2-amine], with 500 to 10000 nM. Same read-out and setting: as for `[2H]C([2H])(Oc1nc(N2CCOC[C@H]3[C@H](Cl)[C@H]32)c2cnc(-c3cc(N)cc4cccc(C#C)c34)c(F)c2n1)[C@@]12CCCN1[C@H](C)[C@H](F)C2` [Example 348, 4-(4-((1S,7S,8S)-8-chloro-5-oxa-2-azabicyclo[5.1.0]octan-2-yl)-8-fluoro-2-(((2R,3R,7aS)-2-fluoro-3-methyltetrahydro-1H-pyrrolizin-7a(5H)-yl)methoxy-d2)pyrido[4,3-d]pyrimidin-7-yl)-5-ethynylnaphthalen-2-amine], the figure is less than 50 nM; as for `C#Cc1c(F)ccc2cc(N)cc(-c3ncc4c(N5CCOC[C@H]6[C@H](F)[C@H]65)nc(OC[C@]56C/C(=C\F)CN5CCC65CC5)nc4c3F)c12` [Example 362, 5-Ethynyl-6-fluoro-4-(8-fluoro-4-((1S,7S,8S)-8-fluoro-5-oxa-2-azabicyclo[5.1.0]octan-2-yl)-2-(((R,E)-6′-(fluoromethylene)tetrahydrospiro[cyclopropane-1,1′-pyrrolizin]-7a′(5′H)-yl)methoxy)pyrido[4,3-d]pyrimidin-7-yl)naphthalen-2-amine], less than 50 nM; as for `C#Cc1c(F)ccc2cc(N)cc(-c3ncc4c(N5CCOC[C@H]6[C@H](F)[C@H]65)nc(OC[C@]56C/C(=C/F)CN5CCC65CC5)nc4c3F)c12` [Example 363, 5-Ethynyl-6-fluoro-4-(8-fluoro-4-((1S,7S,8S)-8-fluoro-5-oxa-2-azabicyclo[5.1.0]octan-2-yl)-2-(((R,Z)-6′-(fluoromethylene)tetrahydrospiro[cyclopropane-1,1′-pyrrolizin]-7a′(5′H)-yl)methoxy)pyrido[4,3-d]pyrimidin-7-yl)naphthalen-2-amine], less than 50 nM. On the same count and under the same terms, then `C#Cc1c(F)ccc2cc(N)cc(-c3ncc4c(N5CCOC[C@H]6[C@H](F)[C@H]65)nc(OC[C@]56C[C@@H](F)CN5CCC6=C)nc4c3F)c12` [Example 364, 5-ethynyl-6-fluoro-4-(8-fluoro-2-(((6R,7aR)-6-fluoro-1-methylenetetrahydro-1H-pyrrolizin-7a(5H)-yl)methoxy)-4-((1S,7S,8S)-8-fluoro-5-oxa-2-azabicyclo[5.1.0]octan-2-yl)pyrido[4,3-d]pyrimidin-7-yl)naphthalen-2-amine], with less than 50 nM; and `[2H]C([2H])(Oc1nc(N2CCOC[C@H]3[C@H](Cl)[C@H]32)c2cnc(-c3cc(N)cc4ccc(C)c(C#C)c34)c(F)c2n1)[C@@]12CCCN1[C@H](C)[C@H](F)C2` [Example 366, 4-(4-((1S,7S,8S)-8-chloro-5-oxa-2-azabicyclo[5.1.0]octan-2-yl)-8-fluoro-2-(((2R,3R,7aS)-2-fluoro-3-methyltetrahydro-1H-pyrrolizin-7a(5H)-yl)methoxy-d2)pyrido[4,3-d]pyrimidin-7-yl)-5-ethynyl-6-methylnaphthalen-2-amine], with less than 50 nM. The molecule `C=C1CN2CCC[C@@]2(COc2nc(N3CCCC[C@H]4[C@H](F)[C@H]43)c3cnc(-c4cc(N)cc(Cl)c4C(F)(F)F)c(F)c3n2)C1` [Example 367, 3-chloro-5-(8-fluoro-4-((1S,7R,8S)-8-fluoro-2-azabicyclo[5.1.0]octan-2-yl)-2-(((S)-2-methylenetetrahydro-1H-pyrrolizin-7a(5H)-yl)methoxy)pyrido[4,3-d]pyrimidin-7-yl)-4-(trifluoromethyl)aniline] registered an IC50 of less than 50 nM.

The same experiment, now with this note: cellular pERK (Thr202/Tyr204) HTRF, NCI-H441 cells.
Consider `[2H]C([2H])(Oc1nc(N2CCOC[C@H]3[C@H](F)[C@H]32)c2cc(C#N)c(-c3cc(N)cc4ccc(F)c(C#C)c34)c(F)c2n1)[C@@]12CCCN1C[C@H](F)C2` [Example 353, 7-(3-Amino-8-ethynyl-7-fluoronaphthalen-1-yl)-8-fluoro-4-((1S,7S,8S)-8-fluoro-5-oxa-2-azabicyclo[5.1.0]octan-2-yl)-2-(((2R,7aS)-2-fluorotetrahydro-1H-pyrrolizin-7a(5H)-yl)methoxy-d2)quinazoline-6-carbonitrile], for which the IC50 was less than 50 nM. The same measure, in the same setting: then `[2H]C([2H])(Oc1nc(N2CCOC[C@H]3[C@H](F)[C@H]32)c2cc(Cl)c(-c3cc(N)cc4ccc(F)c(C#C)c34)c(F)c2n1)[C@@]12CCCN1C[C@H](F)C2` [Example 354, 4-(6-chloro-8-fluoro-4-((1S,7S,8S)-8-fluoro-5-oxa-2-azabicyclo[5.1.0]octan-2-yl)-2-(((2R,7aS)-2-fluorotetrahydro-1H-pyrrolizin-7a(5H)-yl)methoxy-d2)quinazolin-7-yl)-5-ethynyl-6-fluoronaphthalen-2-amine], with less than 50 nM; and `[2H]C([2H])(Oc1nc(N2CCOC[C@H]3[C@H](F)[C@H]32)c2cc(F)c(-c3cc(N)cc4ccc(F)c(C#C)c34)c(F)c2n1)[C@@]12CCCN1C[C@H](F)C2` [Example 355, 4-(6,8-difluoro-4-((1S,7S,8S)-8-fluoro-5-oxa-2-azabicyclo[5.1.0]octan-2-yl)-2-(((2R,7aS)-2-fluorotetrahydro-1H-pyrrolizin-7a(5H)-yl)methoxy-d2)quinazolin-7-yl)-5-ethynyl-6-fluoronaphthalen-2-amine], with less than 50 nM.

For the origin of these results see patent US20250282799A1, “SUBSTITUTED PYRIDO[4,3-d]PYRIMIDINES AS KRAS MODULATORS” (Alterome Therapeutics, Inc., priority 2023, published 2025).
